Source: paper PMC11355573, “A New Renieramycin T Right-Half Analog as a Small Molecule Degrader of STAT3” (Marine Drugs, 2024)

Tests used:
H460 cells [1] = conditions: cited from earlier work
H460 cells [2] = test: MTT cell viability assay (cytotoxicity); type: cell-based, human; conditions: Homo sapiens, NCI-H460, 24 h, read-out: IC50 ± SD H460
Procedure: (§1) NSCLCs H292 and H460 were treated with various concentrations of derivatives of the RT right-half analog for 24 h. […] However, the IC50 values for DH_17, DH_20, DH_23, and DH_26 in H460 cells were greater than 100 μM. TM-(−)-18 was identified as a potent compound in a previous study. The structure of TM-(−)-18 was present in Figure 1A. […] To assess the selectivity of DH_28, DH_30, DH_31, and TM-(−)-18 in lung cancer cells, non-tumorigenic epithelial cell lines derived from human bronchial epithelial cells (BEAS-2B) were treated with DH_28, DH_30, DH_31, and TM-(−)-18 at various concentrations for 24 h.
(§2) MTT assay was conducted to ascertain cell viability in the presence of DH_17, DH_20, DH_23, DH_26, DH_28, DH_30, DH_31, or TM-(–)-18. H292 and H460 cells (1.0 × 10^4 cells per well) were seeded in 96-well plates. Following overnight incubation, the cells were treated with different concentrations of RT right–half analogs (0–100 μM) for 24 h at 37 °C. Subsequently, cell viability was assessed using MTT assay, following the manufacturers’ protocols. The optical density was measured at 570 nm using a CLARIOStar microplate reader (BMG Labtech, Ortenberg, Germany).

H292 cells = test: MTT cell viability assay (cytotoxicity); type: cell-based, human; conditions: Homo sapiens, NCI-H292, 24 h, read-out: IC50 ± SD H292
Procedure: as §1, §2

Compound	H460 cell motility (H460 cells [1])	IC50 (H460 cells [2])	IC50 (H292 cells)
22-O-(N-Boc-L-glycine) ester of RM	inhibited		
COc1c(C)cc2c(c1O)[C@@H]1CN(Cc3ccccn3)[C@@H](C#N)[C@H](C2)N1C [DH_17, (1R,4R,5S)-10-hydroxy-9-methoxy-8,11-dimethyl-3-(pyridin-2-ylmethyl)-1,2,3,4,5,6-hexahydro-1,5-epiminobenzo[d]azocine-4-carbonitrile]		> 100 µM	20.5 ± 3.69 µM
COc1c(C)cc2c(c1O)[C@@H]1CN(Cc3cccnc3)[C@@H](C#N)[C@H](C2)N1C [DH_20, (1R,4R,5S)-10-hydroxy-9-methoxy-8,11-dimethyl-3-(pyridin-3-ylmethyl)-1,2,3,4,5,6-hexahydro-1,5-epiminobenzo[d]azocine-4-carbonitrile]		> 100 µM	21.5 ± 3.77 µM
COc1c(C)cc2c(c1O)[C@@H]1CN(Cc3ccncc3)[C@@H](C#N)[C@H](C2)N1C [DH_23, (1R,4R,5S)-10-hydroxy-9-methoxy-8,11-dimethyl-3-(pyridin-4-ylmethyl)-1,2,3,4,5,6-hexahydro-1,5-epiminobenzo[d]azocine-4-carbonitrile]		> 100 µM	17.5 ± 3.08 µM
COc1c(C)cc2c(c1O)[C@@H]1CN(Cc3cncs3)[C@@H](C#N)[C@H](C2)N1C [DH_26, (1R,4R,5S)-10-hydroxy-9-methoxy-8,11-dimethyl-3-(thiazol-5-ylmethyl)-1,2,3,4,5,6-hexahydro-1,5-epiminobenzo[d]azocine-4-carbonitrile]		> 100 µM	7.18 ± 2.39 µM
